Measured values: US20130055471A1, “Transgenic Ozone-Resistant Plants” (priority 2009, published 2013)
Entries after “also recorded” stand apart in the source; their conditions may differ.

What was measured:
[1] = system: Cotton; assay: Full leaf Cotton Total Dark Respiration (TDR) measurements; type: in vivo, Gossypium spp.
From the text: (§1) Ozone generators (model OP-35-3P, Grupo Interozone, Brazil) were coupled to ozone monitors (model 202, 2B Technologies, Inc. […] Crops Advance Brazil). […] This was used as the upper limit for phytotron number one. […] Ozone levels of phytotron number two and three were permanently measured at 10 second intervals and averaged per minute. Each ozone monitor fed averaged values over an analog output to an ozone monitor-ozone generator interface. Hysteresis was set at +/-5 ppbv. Ozone levels were monitored close to the inlet of the two internal circulation ventilators. The ozone generators were adapted to accept an external digital signal from the interface. Respiration of plant material was tested as follows: Partial oxygen pressure drops due to oxygen consumption as result of dark respiration were measured using phase shift fluorescence measurement. For this, a NeoFoxTM Phase Measurement System was used (Fluorometer Bench version using a […] laboratory-grade bifurcated optical fiber with FOXY-R-8 cm overcoated fluorescence oxygen needle sensor, Ocean Optics Inc. USA). Fluorescence phase shift was expressed as Tau in microseconds (μs) and has an inverse and linear relation with the partial oxygen pressure. […] In addition, full leaf Total Dark Respiration (TDR) measurements without the use of any pre-treatment solution (no SHAM and pretreatment control) were executed for cotton, corn and rice. Data (tables 2, 3 and 4) show clear positive correlation between a) total respiration per unit of fresh weight and ozone level, and b) total respiration per unit of dry weight and ozone level.

[2] = system: Corn; assay: Full leaf Corn Total Dark Respiration (TDR) measurements; type: in vivo, Zea mays L.
From the text: as §1

[3] = system: Cotton; assay: Total dark respiration and SHAM-sensitive AOX by phase shift fluorescence, cotton leaf sections; type: in vivo, Gossypium spp.; conditions: for increase of AOX respiration compared to the initial AOX respiration rate: ontogenic phase in 0 ppbv ozone ambient
From the text: All plantings were done at day 0. shifting plants to new ozone background for all plants=day 70. […] 60 ppb plants after 8 days (=day 78) in 0 ppb still act as if in 60 ppb. Sugar Cane: plants from 0 ppb, after having their first 70 days of development in 0 ppb, stayed for the nex 33 days (till day 103) in 60 ppb before being placed back in their original 0 ppb.
Ozone generators (model OP-35-3P, Grupo Interozone, Brazil) were coupled to ozone monitors (model 202, 2B Technologies, Inc. USA; dynamic range of 1.5 ppbv to 100 ppmv of ozone; precision 1.5 ppbv or 2% of the reading) using a ozone monitor—generator interface (Engineering dep. Crops Advance Brazil). […] This was used as the upper limit for phytotron number one. Phytotron number two was set at 30 ppbv average ozone. Phytotron number three was set at 60 ppbv average ozone. Ozone levels of phytotron number two and three were permanently measured at 10 second intervals and averaged per minute. Each ozone monitor fed averaged values over an analog output to an ozone monitor—ozone generator interface. Hysteresis was set at +/−5 ppbv. Ozone levels were monitored close to the inlet of the two internal circulation ventilators. The ozone generators were adapted to accept an external digital signal from the interface.
Respiration of plant material was tested as follows: Partial oxygen pressure drops due to oxygen consumption as result of dark respiration were measured using phase shift fluorescence measurement. For this, a NeoFox™ Phase Measurement System was used (Fluorometer Bench version using a QBIF600-VIS-NIR laboratory-grade bifurcated optical fiber with FOXY-R-8 cm overcoated fluorescence oxygen needle sensor, Ocean Optics Inc. USA).
Fluorescence phase shift was expressed as Tau in microseconds (μs) and has an inverse and linear relation with the partial oxygen pressure.
Salicylhydroxamic acid (SHAM) (99%, Sigma-Aldrich Brasil Ltda. Sao Paulo, Brazil) was used as an AOX inhibitor. The soluble sodium salicylhydroxamate salt was prepared by titrating SHAM with 0.1 M sodium hydroxide until neural pH. A stock solution ([…]) was prepared containing 300 ml/L ethanol from initial dissolving SHAM (same abbreviation is used for the salicylhydroxamate salt). From the stock solution a 20 mmol/L salicylhydroxamate final test solution was prepared by taking 12.3 ml stock solution and completing till 100 ml with a phosphate buffer solution (pH 7). The final SHAM test solution thus contained 3.7% residual ethanol. For proper control, the comparative test solution was also provided with 3.7 ml of ethanol per 100 ml of phosphate buffer solution (pH 7). To both solutions two drops of wetting agent (Silwet L-77 AG, GE Silicones Inc. USA) were added per 25 ml of test solution.
Plant material collected was always the first fully grown leaf counting from the apical point downwards or outwards (e.g. for monocotyls). […] Per test, four leafs from four different plants were sampled. Cotton leafs were cut in half along the mid nerve. Using a clipper, 16 leaf sections of equal surface area of 400.9 mm2 each were cut, one from each base half and one from each top half part giving 4 sections per leaf and 16 sections per test. The leaf sections were distributed equally over two sub samples, one with and one without salicylhydroxamate. Using a chirurgical blade, all sections were given 7 parallel cuts (through and through) at approximately 2.5 mm apart over almost the full length of the section to guarantee lateral infiltration of the test solutions and gas exchange.
Within 10 minutes of plant sampling the sections were cut, initial subsample weight was registered using a high precision laboratory scale and the subsamples were placed in their solutions with and without salicylhydroxamate for 60 minutes in the dark, to guarantee dark adaptation.
Each sample contained 4 leaves, 4 sections per leaf providing 16 sections, 8 per subsample. […]

[4] = system: Rice; assay: Full leaf Rice Total Dark Respiration (TDR) measurements; type: in vivo, Oryza sativa L.
From the text: as §1

[5] = system: Sugarcane plants; assay: AOX and total dark respiration in sugarcane exposed to various levels of ozone; type: in vivo, Saccharum spp.; conditions: for relative AOX, integration of the parabolic function yields / absolute AOX, integration of the parabolic function yields: 60 ppbv
From the text: For sugarcane 4 plantlets per pot were provided and these plantlets were transplanted from the agar following washing of their root system with nutrient solution (see below) in order to remove residual agar. Every sugar cane pot was provided with a dome consisting of a 5 litre water flask (PP) of which the bottom was removed creating a 30 cm high dome. Crepe-tape was used to provide an air-tight connection between the bottom rim of the flask and the planting pot. The 40 mm screw cap on top functioned as a ventilation valve, initially maintaining near 100% RV to prevent the plantlets from drying out. Directly after transplanting, the sugar cane plantlets were placed in a phytotron (4 pots per phytotron) more in particular in acrylic cabinets created therein (see below). The sugar cane domes were removed 10 days after transplanting. All plantings were done at day 0. shifting plants to new ozone background for all plants=day 70. […] 60 ppb plants after 8 days (=day 78) in 0 ppb still act as if in 60 ppb. Sugar Cane: plants from 0 ppb, after having their first 70 days of development in 0 ppb, stayed for the nex 33 days (till day 103) in 60 ppb before being placed back in their original 0 ppb. […] Sugarcane plants were grown in the same manner as described above in Example 2. The AOX and total dark respiration were measured for plants exposed to various levels of ozone as described above in Example 2.

[6] = ozone concentration during growth 30 ppbv
[7] = ozone concentration during growth 60 ppbv
[8] = 0 →30 ppbv ozone: plants grown in 0 ppvb O3 and transferred to 30 ppvb O3
[9] = 0 →60 ppbv ozone: plants grown in 0 ppvb O3 and transferred to 60 ppvb O3 (day 70, 7 days)
[10] = 0 →60 →0 ppbv ozone: grown in 0 ppvb O3, transferred to 60 ppvb O3 and transferred back to 0 ppvb O3
[11] = 60 →0 ppbv ozone: plants grown in 60 ppvb O3 and transferred to 0 ppvb O3 (day 70, 8 days)

## O=[O+][O-] [ozone]
[1]; [6]
  Normalized dark respiration activity (dwt): 13.4 h/Tau/g dry weigth/40 ml
  Normalized dark respiration activity (fwt): 72.6 h/Tau/g fresh weigth/40 ml
[1]; [7]
  Normalized dark respiration activity (dwt): 12.7 h/Tau/g dry weigth/40 ml
  Normalized dark respiration activity (fwt): 67.9 h/Tau/g fresh weigth/40 ml
[2]; [6]
  Normalized dark respiration activity (dwt): 14.7 h/Tau/g dry weigth/40 ml
  Normalized dark respiration activity (fwt): 78.3 h/Tau/g fresh weigth/40 ml
[2]; [7]
  Normalized dark respiration activity (dwt): 14.5 h/Tau/g dry weigth/40 ml
  Normalized dark respiration activity (fwt): 72.1 h/Tau/g fresh weigth/40 ml
[3]; [8]
  AOX component (arb units): 3.26 arb units
  AOX/TDR: 30.3%
  AOX/TDR relative to initial equilibrium: 116.5%
  TDR excl AOX dTau/t (μs/s) without SHAM: 7.51E−06 μs/s
  TDR incl AOX dTau/t (μs/s) with SHAM: 1.08E−05 μs/s
[3]; [9]
  AOX component (arb units): 3.77 arb units
  AOX/TDR: 39.6%
  AOX/TDR relative to initial equilibrium: 152.5%
  TDR excl AOX dTau/t (μs/s) without SHAM: 5.75E−06 μs/s
  TDR incl AOX dTau/t (μs/s) with SHAM: 9.52E−06 μs/s
[3]; [10]
  AOX component (arb units): 2.95 arb units
  AOX/TDR: 25.0%
  AOX/TDR relative to initial equilibrium: 96.2%
  TDR excl AOX dTau/t (μs/s) without SHAM: 8.87E−06 μs/s
  TDR incl AOX dTau/t (μs/s) with SHAM: 1.18E−05 μs/s
[3]; [11]
  AOX component (arb units): 3.97 arb units
  AOX/TDR: 35.8%
  AOX/TDR relative to initial equilibrium: 100.5%
  TDR excl AOX dTau/t (μs/s) without SHAM: 7.13E−06 μs/s
  TDR incl AOX dTau/t (μs/s) with SHAM: 1.11E−05 μs/s
[3]; placed in the 30 ppbv ozone ambient
  increase of AOX respiration compared to the initial AOX respiration rate: 16.5%
[3]; placed in the 60 ppbv ozone ambient
  increase of AOX respiration compared to the initial AOX respiration rate: 52.5%
[3]; ontogenic phase in 0 ppbv, passed time in the 60 ppbv ozone ambient
  AOX respiration after return to the 0 ppbv ozone ambient: returned fully to its initial level
[3]; plants grown in 30 ppvb O3
  AOX component (arb units): 2.97 arb units
  AOX/TDR: 29.9%
  TDR excl AOX dTau/t (μs/s) without SHAM: 6.96E−06 μs/s
  TDR incl AOX dTau/t (μs/s) with SHAM: 9.93E−06 μs/s
[3]; plants grown in 60 ppvb O3
  AOX component (arb units): 3.33 arb units
  AOX/TDR: 35.6%
  AOX/TDR relative to initial equilibrium: 100.0%
  TDR excl AOX dTau/t (μs/s) without SHAM: 6.03E−06 μs/s
  TDR incl AOX dTau/t (μs/s) with SHAM: 9.36E−06 μs/s
[3]; plants grown up in the 60 ppbv ozone level ambient
  AOX respiration during stay in the zero ozone level ambient: did not lower their AOX respiration
[4]; [6]
  Normalized dark respiration activity (dwt): 8.2 h/Tau/g dry weigth/40 ml
  Normalized dark respiration activity (fwt): 29.2 h/Tau/g fresh weigth/40 ml
[4]; [7]
  Normalized dark respiration activity (dwt): 7.6 h/Tau/g dry weigth/40 ml
  Normalized dark respiration activity (fwt): 29.4 h/Tau/g fresh weigth/40 ml
[5]; Time of Day 5.3
  relative AOX, integration of the parabolic function yields: 0.0%
[5]; Time of Day 5.6
  absolute AOX, integration of the parabolic function yields: 0.0
[5]; Time of Day 23.0
  absolute AOX, integration of the parabolic function yields: 51.9
[5]; Time of Day 24.3
  relative AOX, integration of the parabolic function yields: 436%
[5]; 70 days 0 ppbv, 33 days at 60 ppbv, returned to 0 ppbv, after 5 days
  AOX at 10:00 am (% of TDR): approximately 5 % of TDR
[5]; 70 days 0 ppbv, 33 days at 60 ppbv, then returned to 0 ppbv, first
  AOX at about 10:00 am (% of TDR): approximately 35 % of TDR
[5]; 70 days at 60 ppbv, thereafter 33 days in 0 ppbv
  AOX level after shift to 0 ppbv: maintained their 60 ppb AOX levels; also recorded: maintain their high AOX; also recorded: consistently high AOX levels
[5]; absolute AOX
  AOX 60 ppbv/AOX 0 ppbv (dTau/dt/dTau/dt): 169%
[5]; relative AOX
  AOX 60 ppbv/AOX 0 ppbv (%/%): 154%
